Measured values as given in patent publication US20240174727A1, “LONG-ACTING NATRIURETIC PEPTIDES AND USES THEREOF” (Eli Lilly and Company, priority 2022, published 2024).
Where two headings read alike, the source gives them in different places. Numbered stars: 1 amine (or outer) side, 2 acyl side, 3 side chain; on linkers, the order of the positions; unused ones are H or OH. Bridge positions count the residues as written; N and C are the ends. Square brackets hold non-standard residues; d marks the D form. Peptide text beside a SMILES is read from it. * marks the point of attachment. PEG24 = NCCOCCOCCOCCOCCOCCOCCOCCOCCOCCOCCOCCOCCOCCOCCOCCOCCOCCOCCOCCOCCOCCOCCOCCOCCC(=O)O; C20 diacid = O=C(O)CCCCCCCCCCCCCCCCCCC(=O)*; γGlu = O=C(O)[C@H](CCC(=O)[*:2])N[*:1]; 4Pal = N[C@@H](Cc1ccncc1)C(=O)O; Dap = NC[C@H](N)C(=O)O; CH2 = C([*:1])[*:2]; βAla = NCCC(=O)O

Target: T1, human NPRA (Homo sapiens, UniProt P16066)
T1 construct: Full-Length cDNA Cloning and Generation of Cell Lines Overexpressing Natriuretic Peptide Receptors (NPRs); expressed in transfected cells; host or cells: Jump-in T-Rex HEK293 cells, pJTI R4 CMV-TO MCS pA vector, tetracycline induction
T1 sequence (P16066 33-1061): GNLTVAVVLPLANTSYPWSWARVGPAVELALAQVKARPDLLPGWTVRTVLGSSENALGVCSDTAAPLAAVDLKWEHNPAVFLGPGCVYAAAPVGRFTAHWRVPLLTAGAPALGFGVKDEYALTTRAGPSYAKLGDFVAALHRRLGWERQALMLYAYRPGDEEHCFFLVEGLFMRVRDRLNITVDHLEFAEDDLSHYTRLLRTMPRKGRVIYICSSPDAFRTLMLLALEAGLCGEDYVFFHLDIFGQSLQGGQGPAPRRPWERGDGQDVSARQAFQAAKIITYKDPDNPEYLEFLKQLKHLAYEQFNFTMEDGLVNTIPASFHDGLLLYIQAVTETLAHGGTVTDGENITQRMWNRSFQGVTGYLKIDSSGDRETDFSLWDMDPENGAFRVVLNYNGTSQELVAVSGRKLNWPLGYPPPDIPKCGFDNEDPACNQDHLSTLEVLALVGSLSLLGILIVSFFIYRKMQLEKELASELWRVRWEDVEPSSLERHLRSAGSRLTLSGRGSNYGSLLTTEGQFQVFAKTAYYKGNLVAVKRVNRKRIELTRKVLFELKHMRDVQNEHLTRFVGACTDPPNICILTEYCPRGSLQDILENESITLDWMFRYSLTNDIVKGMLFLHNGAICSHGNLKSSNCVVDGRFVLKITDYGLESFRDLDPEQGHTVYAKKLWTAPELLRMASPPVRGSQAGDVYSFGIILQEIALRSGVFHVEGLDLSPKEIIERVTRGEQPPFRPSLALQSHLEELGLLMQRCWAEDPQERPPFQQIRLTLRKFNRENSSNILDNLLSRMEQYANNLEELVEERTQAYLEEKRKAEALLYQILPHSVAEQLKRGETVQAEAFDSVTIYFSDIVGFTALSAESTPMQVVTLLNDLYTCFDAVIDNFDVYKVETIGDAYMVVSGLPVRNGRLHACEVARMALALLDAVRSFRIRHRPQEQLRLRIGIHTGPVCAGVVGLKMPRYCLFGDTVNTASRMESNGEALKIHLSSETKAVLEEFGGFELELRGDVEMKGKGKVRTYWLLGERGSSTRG
Assay: Human NPRA cGMP activity assay (HTRF) in HEK293 cells overexpressing NPRA
Type: cell-based
Procedure, shortened: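 cGMP measured by HTRF and scaled between buffer (minimum) and 100 nM amidated rat ANP (maximum). Polypeptides in 10-fold steps from 10 μM to 1 pM, 0.5% DMSO, 0.5 mM IBMX, 40 min at room temperature, on induced NPRA-overexpressing HEK293 cells.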

[1] = assay buffer with 0.1% BSA, read-out: cGMP Assay (EC50, pM) w/BSA hNPRA
[2] = assay buffer with 0.1% casein, read-out: cGMP Assay (EC50, pM) w/Casein hNPRA
[3] = cGMP Assay (EC50, pM) w/Casein hNPRA, assay buffer with 0.1% casein
[4] = cGMP Assay (EC50, pM) w/BSA hNPRA, assay buffer with 0.1% BSA

Compound | EC50 [1] [pM] | EC50 [2] [pM] | EC50 [3] [pM] | EC50 [4] [pM]
CC[C@H](C)[C@@H]1NC(=O)[C@H](CCCNC(=N)N)NC(=O)[C@H](CC(=O)O)NC(=O)[C@H]([C@@H](C)CC)NC(=O)[C@H](CCCNC(=N)N)NC(=O)CNC(=O)CNC(=O)[C@H](Cc2ccccc2)NC(=O)[C@@H](NC(=O)[C@H](CO)NC(=O)[C@H](CO)NC(=O)[C@H](CCCNC(=N)N)NC(=O)[C@H](CCCNC(=N)N)NC(=O)[C@H](Cc2ccncc2)NC(=O)[C@H](CO)NC(=O)COCCOCCNC(=O)COCCOCCNC(=O)COCCOCCNC(=O)COCCOCCNC(=O)COCCOCCNC(=O)COCCOCCNC(=O)CNC(=O)[C@H](CCCCN)NC(=O)[C@H](CCC(=O)O)NC(=O)[C@H](CCCCN)NC(=O)[C@H](CCC(=O)O)NC(=O)[C@H](CCCCN)NC(=O)[C@H](CCC(=O)O)NC(=O)CC[C@H](NC(=O)CCCCCCCCCCCCCCCCCCC(=O)O)C(=O)O)CSCSC[C@@H](C(=O)N2CCC[C@H]2C(=O)N[C@@H](CO)C(=O)N[C@@H](Cc2ccccc2)C(=O)N[C@@H](CCCNC(=N)N)C(=O)N[C@@H](Cc2c[nH]cn2)C(=O)NCC(=O)NCC(=O)N[C@@H](CCCCN)C(=O)N[C@@H](CO)C(=O)N[C@@H](CO)C(=O)NCC(=O)N[C@@H](C)C(=O)N2CCC[C@H]2C(=O)N2CCC[C@H]2C(=O)N2CCC[C@H]2C(=O)N[C@@H](CO)C(N)=O)NC(=O)CNC(=O)[C@H](CC(C)C)NC(=O)CNC(=O)[C@H](CO)NC(=O)[C@H](CCC(N)=O)NC(=O)[C@H](Cc2c[nH]cn2)NC(=O)CNC1=O [Example 86] | 25200 | 1020 |  | 
{C20 diacid-γGlu}-EKEKEKGEKPRSSCFG[Dap]RIDRIGHQSGLGCPSFRHGSPSSGAPPPS-NH2 (linker 14-30 via CH2) [Example 137] | 155000 | 769 |  | 
CC[C@H](C)[C@@H]1NC(=O)[C@H](CCCNC(=N)N)NC(=O)[C@H](CC(=O)O)NC(=O)[C@H]([C@@H](C)CC)NC(=O)[C@H](CCCNC(=N)N)NC(=O)[C@H](CCCCN)NC(=O)CNC(=O)[C@H](Cc2ccccc2)NC(=O)[C@@H](NC(=O)[C@H](CO)NC(=O)[C@H](CO)NC(=O)[C@H](CCCNC(=N)N)NC(=O)CCNC(=O)[C@H](CCCCN)NC(=O)[C@H](CCC(=O)O)NC(=O)CCOCCOCCOCCOCCOCCOCCOCCOCCOCCOCCOCCOCCOCCOCCOCCOCCOCCOCCOCCOCCOCCOCCOCCOCCNC(=O)CNC(=O)[C@H](CCCCN)NC(=O)[C@H](CCC(=O)O)NC(=O)[C@H](CCCCN)NC(=O)[C@H](CCC(=O)O)NC(=O)[C@H](CCCCN)NC(=O)[C@H](CCC(=O)O)NC(=O)CC[C@H](NC(=O)CCCCCCCCCCCCCCCCCCC(=O)O)C(=O)O)CSCSC[C@@H](C(=O)N2CCC[C@H]2C(=O)N[C@@H](CO)C(=O)N[C@@H](Cc2ccccc2)C(=O)N[C@@H](CCCNC(=N)N)C(=O)N[C@@H](Cc2c[nH]cn2)C(=O)NCC(=O)NCC(=O)N2CCC[C@H]2C(N)=O)NC(=O)CNC(=O)[C@H](CC(C)C)NC(=O)CNC(=O)[C@H](CO)NC(=O)[C@H](CCC(N)=O)NC(=O)[C@H](Cc2c[nH]cn2)NC(=O)CNC1=O [Example 130] ({C20 diacid-γGlu}-EKEKEKG[PEG24]EK[βAla]RSSCFGKRIDRIGHQSGLGCPSFRHGGP-NH2; linker 15-31 via CH2) | 1270 | 669 |  | 
{C20 diacid-γGlu}-EKEKEKG[PEG24]S[4Pal]RRSSCFGGRIDRIGHQSGLGCPSFRHGGPSSGAPPPS-NH2 (linker 15-31 via CH2) [Example 61] |  |  | 912 | 
{C20 diacid-γGlu}-EKEKEKGEKPRSSCFG[Dap]RIDRIGHYSGLGCPSFRHGSPSSGAPPPS-NH2 (linker 14-30 via CH2) [Example 136] | 100000 | 1380 |  | 
CC[C@H](C)[C@@H]1NC(=O)[C@H](CCCNC(=N)N)NC(=O)[C@H](CC(=O)O)NC(=O)[C@H]([C@@H](C)CC)NC(=O)[C@H](CCCNC(=N)N)NC(=O)CNC(=O)CNC(=O)[C@H](Cc2ccccc2)NC(=O)[C@@H](NC(=O)[C@H](CO)NC(=O)[C@H](CO)NC(=O)[C@H](CCCNC(=N)N)NC(=O)CCNC(=O)[C@H](CCCCN)NC(=O)[C@H](CCC(=O)O)NC(=O)CNC(=O)[C@H](CCCCN)NC(=O)[C@H](CCC(=O)O)NC(=O)[C@H](CCCCN)NC(=O)[C@H](CCC(=O)O)NC(=O)[C@H](CCCCN)NC(=O)[C@H](CCC(=O)O)NC(=O)CC[C@H](NC(=O)CCCCCCCCCCCCCCCCCCC(=O)O)C(=O)O)CSCSC[C@@H](C(=O)N2CCC[C@H]2C(=O)N[C@@H](CO)C(=O)N[C@@H](Cc2ccccc2)C(=O)N[C@@H](CCCNC(=N)N)C(=O)N[C@@H](Cc2c[nH]cn2)C(=O)NCC(=O)NCC(=O)N2CCC[C@H]2C(=O)N[C@@H](CO)C(=O)N[C@@H](CO)C(=O)NCC(=O)N[C@@H](C)C(=O)N2CCC[C@H]2C(=O)N2CCC[C@H]2C(=O)N2CCC[C@H]2C(=O)N[C@@H](CO)C(N)=O)NC(=O)CNC(=O)[C@H](CC(C)C)NC(=O)CNC(=O)[C@H](CO)NC(=O)[C@H](Cc2ccc(O)cc2)NC(=O)[C@H](Cc2c[nH]cn2)NC(=O)CNC1=O [Example 56] |  |  |  | 145000
CC[C@H](C)[C@@H]1NC(=O)[C@H](CCCNC(=N)N)NC(=O)[C@H](CC(=O)O)NC(=O)[C@H]([C@@H](C)CC)NC(=O)[C@H](CCCNC(=N)N)NC(=O)CNC(=O)CNC(=O)[C@H](Cc2ccccc2)NC(=O)[C@@H](NC(=O)[C@H](CO)NC(=O)[C@H](CO)NC(=O)[C@H](CCCNC(=N)N)NC(=O)CCNC(=O)[C@H](CCC(=O)O)NC(=O)[C@H](CCCCN)NC(=O)CNC(=O)[C@H](CCCCN)NC(=O)[C@H](CCC(=O)O)NC(=O)[C@H](CCCCN)NC(=O)[C@H](CCC(=O)O)NC(=O)[C@H](CCCCN)NC(=O)[C@H](CCC(=O)O)NC(=O)CC[C@H](NC(=O)CCCCCCCCCCCCCCCCCCC(=O)O)C(=O)O)CSCSC[C@@H](C(=O)N2CCC[C@H]2C(=O)N[C@@H](CO)C(=O)N[C@@H](Cc2ccccc2)C(=O)N[C@@H](CCCNC(=N)N)C(=O)N[C@@H](Cc2c[nH]cn2)C(=O)NCC(=O)NCC(=O)N2CCC[C@H]2C(=O)N[C@@H](CO)C(=O)N[C@@H](CO)C(=O)NCC(=O)N[C@@H](C)C(=O)N2CCC[C@H]2C(=O)N2CCC[C@H]2C(=O)N2CCC[C@H]2C(=O)N[C@@H](CO)C(N)=O)NC(=O)CNC(=O)[C@H](CC(C)C)NC(=O)CNC(=O)[C@H](CO)NC(=O)[C@H](Cc2ccc(O)cc2)NC(=O)[C@H](Cc2c[nH]cn2)NC(=O)CNC1=O [Example 58] |  |  | 1220 | 104000
